This assay concerns the target T1, Axl (Homo sapiens, UniProt P30530).
T1 construct: endogenous in cells; host or cells: HeLa cells
T1 sequence (P30530 26-894): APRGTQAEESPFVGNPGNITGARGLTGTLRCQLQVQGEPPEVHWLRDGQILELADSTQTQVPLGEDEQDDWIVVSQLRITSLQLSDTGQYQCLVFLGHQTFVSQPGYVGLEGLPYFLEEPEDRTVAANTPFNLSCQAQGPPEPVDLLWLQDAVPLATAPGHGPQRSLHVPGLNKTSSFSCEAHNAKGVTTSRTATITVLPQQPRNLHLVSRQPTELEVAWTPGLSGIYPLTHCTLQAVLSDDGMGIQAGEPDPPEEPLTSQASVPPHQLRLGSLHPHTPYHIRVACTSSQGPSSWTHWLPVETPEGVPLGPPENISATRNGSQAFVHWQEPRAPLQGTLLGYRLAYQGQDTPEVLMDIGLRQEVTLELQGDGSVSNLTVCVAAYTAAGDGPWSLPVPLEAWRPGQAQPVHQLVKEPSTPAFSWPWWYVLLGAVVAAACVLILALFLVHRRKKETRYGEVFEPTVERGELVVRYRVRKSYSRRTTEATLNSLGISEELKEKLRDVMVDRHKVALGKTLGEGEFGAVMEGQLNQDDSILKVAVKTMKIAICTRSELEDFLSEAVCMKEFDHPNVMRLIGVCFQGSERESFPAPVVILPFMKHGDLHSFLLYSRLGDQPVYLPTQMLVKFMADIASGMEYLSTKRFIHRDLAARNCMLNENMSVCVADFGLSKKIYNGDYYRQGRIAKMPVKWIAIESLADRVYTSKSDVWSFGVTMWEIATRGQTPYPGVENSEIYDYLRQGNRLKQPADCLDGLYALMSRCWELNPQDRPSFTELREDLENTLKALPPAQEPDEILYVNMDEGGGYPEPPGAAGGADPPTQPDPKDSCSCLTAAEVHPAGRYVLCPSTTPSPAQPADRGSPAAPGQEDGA
Description: Phospho-Akt in-cell Western assay (inhibition of Axl activity, Axl-antibody cross-linking stimulation). The format is cell-based. The conditions noted are these: Hela cells, phospho-Akt readout; compounds of formula (Ia), Table 1. The protocol:
The compounds of the invention were tested in the following assay for their ability to inhibit Axl activity.
Phospho-Akt in-Cell Western Assay
• Cell culture plate: 96 well assay plate (Corning 3610), white, clear bottom, tissue-culture treated. • Cells: Hela cells. • Starvation medium: For Axl stimulation: 0.5% FCS (fetal calf serum) in DMEM, plus Axl/Fc (extracellular domain of AXL fused to immunoglobulin Fc region) (R&D, 154-AL) 500 ng/mL. • For EGF (epidermal growth factor) stimulation: 0.5% FCS in DMEM (Dulbecco's modified Eagles medium). • Poly-L-Lysine 0.01% solution (the working solution): 10 μg/ml, dilute In PBS (phosphate buffered saline). • Axl antibody cross-linking: • 1st: Mouse anti-Axl (R&D, MAB154). • 2nd: Biotin-SP-conjugated AffiniPure goat anti-mouse IgG (H+L) (Jackson ImmunoResearch #115-065-003). • Fixing buffer: 4% formaldehyde in PBS. • Wash buffer: 0.1% TritonX-100 in PBS. • Quenching buffer: 3% H2O2, 0.1% Azide in wash buffer, Azide and hydrogen peroxide (H2O2) are added fresh. • Blocking buffer: 5% BSA in TBST (tris buffered saline plus 0.1% Tween 20). • Primary antibody: Rabbit anti-human Phospho-Akt antibody (Cell Signaling 9271): 1×250 diluted in blocking buffer. • Secondary antibody: HRP (horse radish peroxidase)-conjugated Goat anti-Rabbit secondary, stock solution: Jackson ImmunoResearch (Goat anti-Rabbit HRP, #111-035-144) 1:1 diluted in glycerol, store at −20° C. The working solution: 1×2000 dilution of stock in blocking buffer. • Chemiluminescent working solution (Pierce, 37030): SuperSignal ELISA (enzyme linked immunosorbant assay) Pico Chemiluminescent substrate. • Crystal Violet solution: Stock: 2.5% Crystal violet in methanol, filtered and kept at ambient temperature. The working solution: dilute the stock 1:20 with PBS immediately before use.
10% SDS: working solution: 5% SDS (sodium dodecylsulfate), diluted in PBS
A 96 well TC (tissue culture treated) plate was coated with 10 μg/mL poly-L-Lysine at 37° C. for 30 min, washed twice with PBS, and air-dried for 5 minutes before cells were added. Hela cells were seeded at 10,000 cells/well and the cells were starved in 100 μL starvation medium containing Axl/Fc for 24 hrs.
The cells were pre-treated with test compounds by adding 100 μL of 2× test compound to the starvation medium on the cells. The cells were incubated at 37° C. for 1 hr before stimulation.
The cells were stimulated by Axl-antibody cross-linking as follows: A 5×1st/2nd Axl antibody mixture was made (37.5 μg/mL 1st/100 μg/mL 2 nd) in starvation medium and nutated at 4° C. with thorough mixing for 1-2 hours for clustering. The resulting mix was warmed to 37° C. 50 μL of 5×Axl 1st/2nd of antibody cluster was added to the cells and the cells were incubated at 37° C. for 5 min.
After 5 minutes stimulation, the plate was flicked to remove medium and the plate was tapped onto paper towels. Formaldehyde (4.0% in PBS, 100 μL) was added to fix the cells and the cells were incubated at ambient temperature for 20 min without shaking.
The cells were washed with a plate washer buffer to remove the formaldehyde solution. The plate was flicked to removed excess wash buffer and tapped onto paper towels. Quenching buffer (100 μL) was added to each well and the cells were incubated at ambient temperature for 20 minutes without shaking.
The cells were washed with a plate washer buffer to remove the quenching buffer. Blocking buffer (100 μL) was added and the cells were incubated at ambient temperature for at least an hour with gentle shaking.
The cells were washed with a plate washer buffer and diluted primary antibody (50 μL) was added to each well (blocking buffer was added to the negative control wells instead). The plates were incubated overnight at 4° C. with gentle shaking.
The wash buffer was removed, diluted secondary antibody (100 μL) was added, and the cells were incubated at ambient temperature for 1 hour with gentle shaking. […]

A word on the IC50: it is the concentration at which inhibition is half-maximal.

On to `Cc1csc2c(-n3nc(Nc4ccc(C=CCN5CCCCC5)nc4)nc3N)ncnc12` [compound 127, 1-(7-methylthieno [3,2-d]pyrimidin-4-yl)-N^3-(2-(3-(piperidin-1-yl)propen-1-yl)pyridin-5-yl)-1H-1,2,4-triazole-3,5-diamine], for which the IC50 was < 1000 nM.

Regarding `Cc1csc2c(-n3nc(Nc4cnc(N5CCN([C@H]6CC7CCC6C7)CC5)c(Cl)c4)nc3N)ncnc12` (stereo partly drawn) [compound 110, 1-(7-methylthieno [3,2-d]pyrimidin-4-yl)-N^3-(2-(4-(2S)-bicyclo[2.2.1]heptan-2-ylpiperazin-1-yl)-3-chloropyridin-5-yl)-1H-1,2,4-triazole-3,5-diamine], the IC50 fell in the range of 10000 to 20000 nM.

With `Cc1csc2c(-n3nc(Nc4cnc5c(c4)CC(N4CCN(C)CC4)CC5)nc3N)nc(Cl)nc12` (centres unmarked) [compound 66, 1-(2-chloro-7-methylthieno [3,2-d]pyrimidin-4-yl)-N^3-(6-(4-methyl-piperazin-1-yl)-5,6,7,8-tetrahydro-quinolin-3-yl)-1H-1,2,4-triazole-3,5-diamine], the IC50 was < 1000 nM. `COc1cc2ncnc(-n3nc(Nc4cnc(N5CCC(N6CCCC6)CC5)nc4)nc3N)c2cc1OC` [compound 62, 1-(6,7-dimethoxy-quinazoline-4-yl)-N^3-(2-(4-pyrrolidin-1-ylpiperidin-1-yl)pyrimidin-5-yl)-1H-1,2,4-triazole-3,5-diamine]: the half-maximal inhibitory concentration (IC50) was > 20000 nM.

Turning to `Cc1csc2c(-n3nc(Nc4cnc5c(c4)CCC(N4CCCC4)CC5)nc3N)nc(Cl)nc12` (centres unmarked) [compound 77, 1-(2-chloro-7-methylthieno [3,2-d]pyrimidine-4-yl)-N^3-(7-(pyrrolidin-1-yl)-6,7,8,9-tetrahydro-5H-cyclohepta[b]pyridin-3-yl)-1H-1,2,4-triazole-3,5-diamine], the 50% inhibitory concentration (IC50) was < 1000 nM. In the case of `Cc1nc(-n2nc(Nc3cnc(N4CCC(N5CCCC5)CC4)c(C)c3)nc2N)c2ccccc2n1` [compound 55, 1-(2-methyl-quinazolin-4-yl)-N^3-(6-(4-(pyrrolidin-1-yl)piperidin-1-yl)-5-methylpyridin-3-yl)-1H-1,2,4-triazole-3,5-diamine], the IC50 is < 1000 nM. With `Cc1cc(Nc2nc(N)n(-c3ncnc4c(C)csc34)n2)cnc1N1CCN(C2CC3CCC2C3)CC1` (centres unmarked) [compound 72, 1-(7-methylthieno [3,2-d]pyrimidine-4-yl)-N^3-(5-methyl-6-(4-bicyclo [2.2.1]heptan-2-ylpiperazin-1-yl)pyridine-3-yl)-1H-1,2,4-triazole-3,5-diamine], the IC50 was < 1000 nM.

`Cc1csc2c(-n3nc(Nc4cnc5c(c4)CN(Cc4ccccc4)CC5)nc3N)nc(Cl)nc12` [compound 18, 1-(2-chloro-7-methylthieno [3,2-d]pyrimidine-4-yl)-N^3-(6-benzyl-5,6,7,8-tetrahydro-1,6-naphthyridin-3-yl)-1H-1,2,4-triazole-3,5-diamine] registered an IC50 of 10000 to 20000 nM. In the case of `Cc1csc2c(-n3nc(Nc4ccc(N5CCN(CC6CC6)CC5)nc4)nc3N)nc(Cl)nc12` [compound 48, 1-(2-chloro-7-methylthieno [3,2-d]pyrimidin-4-yl)-N^3-(6-(4-cyclopropyl-methyl-piperazin-1-yl)pyridin-3-yl)-1H-1,2,4-triazole-3,5-diamine] it was < 1000 nM; in that of `Cc1csc2c(-n3nc(Nc4ccc(N5CCC(N6CCCC6)CC5)nc4)nc3N)nc(Cl)nc12` [compound 17, 1-(2-chloro-7-methyithieno [3,2-d]pyrimidine-4-yl)-N^3-(6-(4-(pyrrolidin-1-yl)piperidin-1-yl)pyridine-3-yl)-1H-1,2,4-triazole-3,5-diamine], < 1000 nM. In the case of `COc1cc2ncnc(-n3nc(Nc4ccc(N5CCCN(C6CCCC6)CC5)nc4)nc3N)c2cc1OC` [compound 11, 1-(6,7-dimethoxy-quinazoline-4-yl)-N^3-(6-(4-cyclopentyl-1,4-diazepan-1-yl)pyridin-3-yl)-1H-1,2,4-triazole-3,5-diamine] it was < 1000 nM.

With `Cc1csc2c(-n3nc(Nc4cnc(N5CCC(CN6CCCCC6)CC5)nc4)nc3N)nc(Cl)nc12` [compound 131, 1-(2-chloro-7-methylthieno [3,2-d]pyrimidin-4-yl)-N^3-(2-(4-(piperidin-1-ylmethyl)piperidin-1-yl)pyrimidin-5-yl)-1H-1,2,4-triazole-3,5-diamine], the half-maximal inhibitory concentration (IC50) was < 1000 nM. In the case of `Cc1csc2c(-n3nc(Nc4cnc5c(c4)CC(N)CC5)nc3N)nc(Cl)nc12` (centres unmarked) [compound 30, 1-(2-chloro-7-methylthieno [3,2-d]pyrimidin-4-yl)-N^3-(6-amino-5,6,7,8-tetrahydro-quinolin-3-yl)-1H-1,2,4-triazole-3,5-diamine] it was < 1000 nM; in that of `Cc1csc2c(-n3nc(Nc4cnc5c(c4)CN(C4CCCC4)CC5)nc3N)nc(Cl)nc12` [compound 52, 1-(2-chloro-7-methylthieno [3,2-d]pyrimidine-4-yl)-N^3-(6-cyclopentyl-5,6,7,8-tetrahydro-1,6-naphthyridin-3-yl)-1H-1,2,4-triazole-3,5-diamine], < 1000 nM.

Consider `COc1cc2ncnc(-n3nc(Nc4ccc(N5CCC(N6CCCCC6)CC5)nc4)nc3N)c2cc1OC` [compound 27, 1-(6,7-dimethoxy-quinazoline-4-yl)-N^3-(6-(4-piperidin-1-ylpiperidin-1-yl)pyridine-3-yl)-1H-1,2,4-triazole-3,5-diamine], for which the IC50 is < 1000 nM. Consider `Cc1csc2c(-n3nc(Nc4cnc5c(c4)CN(CC4CC4)CC5)nc3N)nc(Cl)nc12` [compound 101, 1-(2-chloro-7-methylthieno [3,2-d]pyrimidin-4-yl)-N^3-(6-cyclopropyl-methyl-5,6,7,8-tetrahydro-1,6-naphthyridin-3-yl)-1H-1,2,4-triazole-3,5-diamine], for which the IC50 was < 1000 nM.

Turning to `Cc1csc2c(-n3nc(Nc4ccc(N5CCN(CC6CC6)CC5)nc4)nc3N)ncnc12` [compound 89, 1-(7-methylthieno [3,2-d]pyrimidine-4-yl)-N^3-(6-(4-(cyclopropyl-methyl)piperazin-1-yl)pyridine-3-yl)-1H-1,2,4-triazole-3,5-diamine], the half-inhibitory concentration (IC50) is < 1000 nM.

(Values after patent US8796259B2, “N3-heteroaryl substituted triazoles and N5-heteroaryl substituted triazoles useful as axl inhibitors” (Rigel Pharmaceuticals, Inc., priority 2006, dated 2014).)
